The values below come from PubChem BioAssay (NCI).

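Results reflect a 48-hour exposure of cells in 96-well plates to compound at five concentrations. The concentration for 50% growth inhibition is given as GI50. TGI: concentration producing complete growth inhibition.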

Among the test systems are ACHN renal; CAKI-1 renal; COLO 205 colon; SN12C renal; M14 melanoma; HCT-116 colon; CCRF-CEM leukemia; NCI-H522 lung; OVCAR-5 ovarian.
Holding throughout (test): growth of human tumour cells (NCI), 48 h

Regarding `CC1=NOC(=O)/C1=C/c1ccccc1O`, the TGI with ACHN renal, in the experiment on CAKI-1 renal, with COLO 205 colon, in the experiment on SN12C renal, in the experiment with M14 melanoma and with HCT-116 colon was more than 100 µM throughout. In addition, the TGI with CCRF-CEM leukemia, with NCI-H522 lung and with OVCAR-5 ovarian was more than 100 µM throughout.
For `c1cc(-c2cn3ccsc3n2)ccn1`, the TGI in the experiment with ACHN renal, in the experiment with CAKI-1 renal, in the experiment with COLO 205 colon, in the experiment on SN12C renal, with M14 melanoma and in the experiment with HCT-116 colon was more than 100 µM throughout. Moreover, the TGI in the experiment with CCRF-CEM leukemia was more than 60.5 µM; in the experiment with NCI-H522 lung, more than 100 µM; in the experiment on OVCAR-5 ovarian it was more than 100 µM.
On to `CCCC[C@H](NC(=O)[C@H]1CCCN1C)C(=O)N(C)[C@H](C[C@@H](OC(C)=O)c1nc(C(=O)N[C@@H](Cc2ccccc2)C[C@H](C)C(=O)OCC)cs1)C(C)C`, for which the GI50 in the experiment on COLO 205 colon was 0.0132 µM; in the experiment with SN12C renal, 0.0316 µM; in the experiment on M14 melanoma, 0.0163 µM; in the experiment on HCT-116 colon it was 0.0125 µM; in the experiment with CCRF-CEM leukemia it was 0.0122 µM; in the experiment on NCI-H522 lung, 0.00341 µM. The GI50 in the experiment on OVCAR-5 ovarian was 0.0642 µM. Further, the TGI in the experiment on COLO 205 colon is 0.0961 µM; with SN12C renal, 8.41 µM; in the experiment on M14 melanoma it was 3.77 µM; in the experiment on HCT-116 colon it was more than 33.3 µM; in the experiment on CCRF-CEM leukemia, 6.41 µM; in the experiment with NCI-H522 lung it was 0.0143 µM. In the experiment on OVCAR-5 ovarian, this molecule came in with a TGI of more than 33.3 µM.
In the case of `COCCN1C2=CCCCC2=Nc2c1nc(N)[nH]c2=O`, the TGI with ACHN renal, in the experiment with CAKI-1 renal, with COLO 205 colon, in the experiment with SN12C renal, in the experiment with M14 melanoma and in the experiment on HCT-116 colon was more than 100 µM in each case. The TGI with CCRF-CEM leukemia, in the experiment with NCI-H522 lung and in the experiment on OVCAR-5 ovarian was more than 100 µM throughout.
For the molecule `CN(C(=O)C12C3C4C5C3C1(C(=O)O)C5C42)C(C)(C)C` (stereo not drawn), the TGI was more than 100 µM in the experiment with ACHN renal; more than 100 µM with CAKI-1 renal; 72.3 µM in the experiment with COLO 205 colon; more than 100 µM with SN12C renal; more than 100 µM in the experiment on M14 melanoma; more than 100 µM in the experiment on HCT-116 colon. For the same molecule, the TGI in the experiment with CCRF-CEM leukemia, in the experiment with NCI-H522 lung and in the experiment on OVCAR-5 ovarian was more than 100 µM each time.
As to `O=C(O)c1ccc([Se][Se]c2ccc(C(=O)O)cc2)cc1`, the TGI was 36.7 µM with CAKI-1 renal; 74 µM with COLO 205 colon; more than 100 µM with SN12C renal; 35.6 µM with M14 melanoma; 34.5 µM with HCT-116 colon; 52 µM in the experiment with NCI-H522 lung. In the experiment with OVCAR-5 ovarian, this molecule returned a TGI of 66.8 µM.
For the molecule `Cc1cccc(NC(=O)CC(=O)N2N=C(N(CCC#N)c3ccc(Cl)cc3)CC2c2ccccc2)c1` (stereo not drawn), the TGI with ACHN renal, in the experiment on CAKI-1 renal, in the experiment on COLO 205 colon, in the experiment with SN12C renal, in the experiment on M14 melanoma and with HCT-116 colon was more than 100 µM each time. Moreover, the TGI in the experiment with CCRF-CEM leukemia, with NCI-H522 lung and in the experiment on OVCAR-5 ovarian was more than 100 µM in each case.
Take `COC(=O)CCC1CCc2c(OC)ccc(O)c2C1=O` (stereo not drawn): the TGI in the experiment on ACHN renal, in the experiment with COLO 205 colon, in the experiment on SN12C renal, in the experiment with M14 melanoma, in the experiment with HCT-116 colon and with CCRF-CEM leukemia was more than 100 µM throughout. This molecule also returned a TGI in the experiment on NCI-H522 lung of more than 100 µM.
`Cc1cc(N(CCC#N)S(=O)(=O)c2ccccc2)ccc1/C=C1N=C(/C=C/c2ccccc2)OC\1=O`: the TGI in the experiment with ACHN renal, with CAKI-1 renal, in the experiment with COLO 205 colon, with SN12C renal, with M14 melanoma and in the experiment on HCT-116 colon was more than 100 µM each time. Moreover, the TGI in the experiment with CCRF-CEM leukemia, in the experiment with NCI-H522 lung and in the experiment with OVCAR-5 ovarian was more than 100 µM throughout.
With `CC(C)C(=O)Nc1nc2nc[nH]c2c(=O)[nH]1`, the TGI in the experiment with ACHN renal, in the experiment with CAKI-1 renal, with COLO 205 colon, in the experiment on SN12C renal, with M14 melanoma and in the experiment on HCT-116 colon was more than 100 µM in each case. Moreover, the TGI in the experiment on CCRF-CEM leukemia, in the experiment on NCI-H522 lung and in the experiment with OVCAR-5 ovarian was more than 100 µM each time.
Consider `Cc1ccncc1.[O]=[Ge].[O]=[Ge].[O]=[Ge].[O]=[Ge].[O]=[Ge].[O]=[Ge][OH].[O]=[Ge][OH]`, for which the GI50 in the experiment with ACHN renal, in the experiment on CAKI-1 renal, in the experiment on SN12C renal, in the experiment on M14 melanoma, in the experiment with HCT-116 colon and in the experiment with CCRF-CEM leukemia was more than 100 µM each time. The GI50 in the experiment on OVCAR-5 ovarian was more than 100 µM. Besides, the TGI with ACHN renal, in the experiment on CAKI-1 renal, in the experiment on SN12C renal, in the experiment with M14 melanoma, in the experiment with HCT-116 colon and in the experiment with CCRF-CEM leukemia was more than 100 µM each time. Further, in the experiment on OVCAR-5 ovarian, the TGI is more than 100 µM.
For the molecule `N#C/C(=C1\OC(=O)C(c2ccc(Br)cc2)=C1O)c1ccc(Br)cc1`, the TGI in the experiment on ACHN renal came out at 29.6 µM; in the experiment on CAKI-1 renal it was 35.6 µM; in the experiment with COLO 205 colon it was 34.5 µM; in the experiment on SN12C renal it was 23.6 µM; with M14 melanoma it was 28.4 µM; with HCT-116 colon it was 32.4 µM. Further, the TGI in the experiment on CCRF-CEM leukemia was determined as 51.1 µM; in the experiment on NCI-H522 lung, 25.6 µM; in the experiment with OVCAR-5 ovarian it was 33.2 µM.
Take `O=c1c2c([nH]c3cc4c(cc13)OCO4)-c1ccccc1CC2`: the TGI in the experiment with ACHN renal, in the experiment on COLO 205 colon, in the experiment on SN12C renal, in the experiment on M14 melanoma, in the experiment with HCT-116 colon and with CCRF-CEM leukemia was more than 100 µM in each case.
In the case of `C=C1C(=O)O[C@H]2[C@H]1[C@H](OC(=O)/C(C)=C\C)CC(=C)[C@@H]1[C@H](O)[C@H]3O[C@@]3(C)[C@@]12O`, the TGI in the experiment on ACHN renal, in the experiment on CAKI-1 renal, with COLO 205 colon, in the experiment with SN12C renal, in the experiment with M14 melanoma and in the experiment on HCT-116 colon was more than 100 µM each time. For the same molecule, the TGI in the experiment with CCRF-CEM leukemia and in the experiment with NCI-H522 lung was more than 100 µM in each case.
